Measurements published in patent US11911393B2, “Non-catalytic substrate-selective p38alpha-specific MAPK inhibitors with endothelial-stabilizing and anti-inflammatory activity, and methods of use thereof” (University of Maryland, Baltimore, priority 2016, dated 2024).

System: TNFα-induced gene expression in HMVECLs
Experiment: RNASeq of TNFα-induced gene expression
Type: cell-based, human
Conditions: 100 μM UM101, 10 μM SB203580

For `C[S+]([O-])c1ccc(-c2nc(-c3ccncc3)c(-c3ccc(F)cc3)[nH]2)cc1` (centres unmarked) [SB203580, reference compound], the “bin (gene expression response pattern): MAP2K6” value (HMVECLs, TNFα) was 1, the “bin (gene expression response pattern): MMP9” value (HMVECLs, TNFα) was 3 and the “bin (gene expression response pattern): MUC4” value (HMVECLs, TNFα) was 3. For the same molecule, the “bin (gene expression response pattern): NEURL3” value (HMVECLs, TNFα) was 5, the “bin (gene expression response pattern): NIPAL4” value (HMVECLs, TNFα) was 5 and the “bin (gene expression response pattern): NOG” value (HMVECLs, TNFα) was 5. The “bin (gene expression response pattern): NUAK1” value (HMVECLs, TNFα) was 5, the “bin (gene expression response pattern): NUAK2” value (HMVECLs, TNFα) was 5 and the “bin (gene expression response pattern): OR2I1P” value (HMVECLs, TNFα) was 3. The “bin (gene expression response pattern): PALMD” value (HMVECLs, TNFα) was 5, the “bin (gene expression response pattern): PCDH17” value (HMVECLs, TNFα) was 5 and the “bin (gene expression response pattern): PCLO” value (HMVECLs, TNFα) was 5. For the same molecule, the “bin (gene expression response pattern): PDE7B” value (HMVECLs, TNFα) was 5, the “bin (gene expression response pattern): PDK4” value (HMVECLs, TNFα) was 5 and the “bin (gene expression response pattern): PGF” value (HMVECLs, TNFα) was 5. The “bin (gene expression response pattern): PLA1A” value (HMVECLs, TNFα) was 3, the “bin (gene expression response pattern): PRICKLE1” value (HMVECLs, TNFα) was 5 and the “bin (gene expression response pattern): PRKCH” value (HMVECLs, TNFα) was 5. For the same molecule, the “bin (gene expression response pattern): PRRG4” value (HMVECLs, TNFα) was 3, the “bin (gene expression response pattern): PTGER4P2” value (HMVECLs, TNFα) was 5 and the “bin (gene expression response pattern): RASSF9” value (HMVECLs, TNFα) was 5. The “bin (gene expression response pattern): RGCC” value (HMVECLs, TNFα) was 5, the “bin (gene expression response pattern): RIMS1” value (HMVECLs, TNFα) was 5 and the “bin (gene expression response pattern): RN7SL471P” value (HMVECLs, TNFα) was 5. For the same molecule, the “bin (gene expression response pattern): RNF152” value (HMVECLs, TNFα) was 5, the “bin (gene expression response pattern): RP11-197M22.2” value (HMVECLs, TNFα) was 5 and the “bin (gene expression response pattern): RP11-244F12.3” value (HMVECLs, TNFα) was 5. The “bin (gene expression response pattern): RP11-284F21.7” value (HMVECLs, TNFα) was 1, the “bin (gene expression response pattern): RP11-309L24.2” value (HMVECLs, TNFα) was 5 and the “bin (gene expression response pattern): RP11-490B18.5” value (HMVECLs, TNFα) was 3. For the same molecule, the “bin (gene expression response pattern): RP11-758N13.1” value (HMVECLs, TNFα) was 5, the “bin (gene expression response pattern): RPA4” value (HMVECLs, TNFα) was 5 and the “bin (gene expression response pattern): SEMA6D” value (HMVECLs, TNFα) was 1. The “bin (gene expression response pattern): SERTAD4” value (HMVECLs, TNFα) was 5, the “bin (gene expression response pattern): SGK223” value (HMVECLs, TNFα) was 5 and the “bin (gene expression response pattern): SH3RF2” value (HMVECLs, TNFα) was 5. The “bin (gene expression response pattern): SH3TC2” value (HMVECLs, TNFα) was 5, the “bin (gene expression response pattern): SLC15A3” value (HMVECLs, TNFα) was 3 and the “bin (gene expression response pattern): SLC16A6” value (HMVECLs, TNFα) was 5. For the same molecule, the “bin (gene expression response pattern): SLC45A3” value (HMVECLs, TNFα) was 5, the “bin (gene expression response pattern): SLCO4A1” value (HMVECLs, TNFα) was 5 and the “bin (gene expression response pattern): SMAD6” value (HMVECLs, TNFα) was 5. For the same molecule, the “bin (gene expression response pattern): SNORD12B” value (HMVECLs, TNFα) was 3, the “bin (gene expression response pattern): SOX18” value (HMVECLs, TNFα) was 5 and the “bin (gene expression response pattern): SSTR1” value (HMVECLs, TNFα) was 5. The “bin (gene expression response pattern): TCHH” value (HMVECLs, TNFα) was 3, the “bin (gene expression response pattern): TGFA” value (HMVECLs, TNFα) was 5 and the “bin (gene expression response pattern): TLR7” value (HMVECLs, TNFα) was 2. For the same molecule, the “bin (gene expression response pattern): TRIL” value (HMVECLs, TNFα) was 1, the “bin (gene expression response pattern): TRPC6” value (HMVECLs, TNFα) was 5 and the “bin (gene expression response pattern): TSLP” value (HMVECLs, TNFα) was 3. For the same molecule, the “bin (gene expression response pattern): UNC5B-AS1” value (HMVECLs, TNFα) was 5, the “bin (gene expression response pattern): VAV3” value (HMVECLs, TNFα) was 5 and the “bin (gene expression response pattern): VDR” value (HMVECLs, TNFα) was 3. The “bin (gene expression response pattern): Y_RNA” value (HMVECLs, TNFα) was 3, the “bin (gene expression response pattern): ZNF365” value (HMVECLs, TNFα) was 5 and the “bin (gene expression response pattern): ZNF467” value (HMVECLs, TNFα) was 5. The “bin (gene expression response pattern): ZNF521” value (HMVECLs, TNFα) was 5, the “bin (gene expression response pattern)” value (HPCA (ENSG00000121905)) was 8 and the “bin (gene expression response pattern)” value (IFIH1 (ENSG00000115267)) was 7. For the same molecule, the “bin (gene expression response pattern)” value (IL1A (ENSG00000115008)) was 8, the “bin (gene expression response pattern)” value (IL3RA (ENSG00000185291)) was 7 and the “bin (gene expression response pattern)” value (IL12RB1 (ENSG00000096996)) was 8. For the same molecule, the “bin (gene expression response pattern)” value (IRF8 (ENSG00000140968)) was 7, the “bin (gene expression response pattern)” value (KYNU (ENSG00000115919)) was 7 and the “bin (gene expression response pattern)” value (LINC00092 (ENSG00000225194)) was 7. The “bin (gene expression response pattern)” value (LST1 (ENSG00000204482)) was 7, the “bin (gene expression response pattern)” value (LYPD6 (ENSG00000187123)) was 7 and the “bin (gene expression response pattern)” value (MIR126 (ENSG00000199161)) was 7. For the same molecule, the “bin (gene expression response pattern)” value (MOB3C (ENSG00000142961)) was 7, the “bin (gene expression response pattern)” value (MRGPRX4 (ENSG00000179817)) was 7 and the “bin (gene expression response pattern)” value (NKD2 (ENSG00000145506)) was 8. The “bin (gene expression response pattern)” value (NKX3-1 (ENSG00000167034)) was 8, the “bin (gene expression response pattern)” value (OLR1 (ENSG00000173391)) was 8 and the “bin (gene expression response pattern)” value (P2RX2 (ENSG00000187848)) was 8. For the same molecule, the “bin (gene expression response pattern)” value (PARP14 (ENSG00000173193)) was 7, the “bin (gene expression response pattern)” value (PEXHG (ENSG00000104883)) was 7 and the “bin (gene expression response pattern)” value (PRRT2 (ENSG00000167371)) was 7. The “bin (gene expression response pattern)” value (RCAN1 (ENSG00000159200)) was 7, the “bin (gene expression response pattern)” value (RND1 (ENSG00000172602)) was 8 and the “bin (gene expression response pattern)” value (RP3-416H24.1 (ENSG00000257671)) was 8. The “bin (gene expression response pattern)” value (RP4-607I7.1 (ENSG00000255521)) was 7, the “bin (gene expression response pattern)” value (RP4-681N20.5 (ENSG00000275582)) was 8 and the “bin (gene expression response pattern)” value (RP4-734G22.3 (ENSG00000272078)) was 7. The “bin (gene expression response pattern)” value (RP11-79H23.3 (ENSG00000261618)) was 7, the “bin (gene expression response pattern)” value (RP11-158I3.3 (ENSG00000269826)) was 8 and the “bin (gene expression response pattern)” value (RP11-283G6.5 (ENSG00000255750)) was 7. The “bin (gene expression response pattern)” value (RP11-342K2.1 (ENSG00000279133)) was 8, the “bin (gene expression response pattern)” value (RP11-638I2.9 (ENSG00000258521)) was 8 and the “bin (gene expression response pattern)” value (RP11-875011.2 (ENSG00000246130)) was 7. The “bin (gene expression response pattern)” value (SCUBE2 (ENSG00000175356)) was 7, the “bin (gene expression response pattern)” value (SFMBT2 (ENSG00000198879)) was 7 and the “bin (gene expression response pattern)” value (SLC19A3 (ENSG00000135917)) was 7. The “bin (gene expression response pattern)” value (SLC26A9 (ENSG00000174502)) was 8, the “bin (gene expression response pattern)” value (SLC52A3 (ENSG00000101276)) was 7 and the “bin (gene expression response pattern)” value (TMEM52B (ENSG00000165685)) was 8. For the same molecule, the “bin (gene expression response pattern)” value (TNF (ENSG00000232810)) was 8, the “bin (gene expression response pattern)” value (TNIP3 (ENSG00000050730)) was 7 and the “bin (gene expression response pattern)” value (TOX (ENSG00000198846)) was 8. For the same molecule, the “bin (gene expression response pattern)” value (TP63 (ENSG00000073282)) was 8 and the “bin (gene expression response pattern)” value (VCAM1 (ENSG00000162692)) was 7.
